# Experiment: Inhibition of beta-N-acetylglucosaminidase
compound,measurement,value
CC(C)C(=O)N[C@H]1c2nc(CCc3ccccc3)cn2[C@H](CO)[C@@H](O)[C@@H]1O,Ki,4.6 pM

# From ChEMBL document CHEMBL1212699, “Chemical approaches to understanding O-GlcNAc glycosylation in the brain” (Nat Chem Biol, 2008)
